Test results from patent publication US9221796B2, “Selective NR2B antagonists” (BRISTOL-MYERS SQUIBB COMPANY, priority 2014, dated 2015).

Each molecule was assayed against NR2B-subtype NMDA receptors (Rattus norvegicus (Rat), UniProt P35439+Q00960) (assay: Radioligand binding assay (3H Ro 25-6981 competition, forebrain membranes)). Conditions: 3H Ro 25-6981 (4 nM), read-out: NR2B Binding Ki.
Description: Radioligand Binding Assay. […] Buchy D; Klingelschmidt A; Messer J; Bleuel Z; Kemp J A; Richards J G. […] Thawed brains were homogenized using a Dounce homogenizer and centrifuged at 48000×g for 20 min. The pellet was resuspended in cold buffer and homogenized again using a Dounce homogenizer. […] After incubation for 1 hr at room temperature, the membrane bound radioligand was harvested on to GF/B filter plates (treated with 0.5% PEI for 1 hr at room temperature). The filter plates were dried at 50° C. for 20 mins, incubated with microscint 20 for 10 minutes and finally, the counts were read on TopCount (Perkin Elmer). […] CPM values were converted to % inhibition and the concentration response curves were plotted using custom made software. Each experiment was repeated at least twice to obtain the final binding Ki values for experimental compounds.

Sequence of NR2B-subtype NMDA receptors (Q00960 27-1482, other chains not shown): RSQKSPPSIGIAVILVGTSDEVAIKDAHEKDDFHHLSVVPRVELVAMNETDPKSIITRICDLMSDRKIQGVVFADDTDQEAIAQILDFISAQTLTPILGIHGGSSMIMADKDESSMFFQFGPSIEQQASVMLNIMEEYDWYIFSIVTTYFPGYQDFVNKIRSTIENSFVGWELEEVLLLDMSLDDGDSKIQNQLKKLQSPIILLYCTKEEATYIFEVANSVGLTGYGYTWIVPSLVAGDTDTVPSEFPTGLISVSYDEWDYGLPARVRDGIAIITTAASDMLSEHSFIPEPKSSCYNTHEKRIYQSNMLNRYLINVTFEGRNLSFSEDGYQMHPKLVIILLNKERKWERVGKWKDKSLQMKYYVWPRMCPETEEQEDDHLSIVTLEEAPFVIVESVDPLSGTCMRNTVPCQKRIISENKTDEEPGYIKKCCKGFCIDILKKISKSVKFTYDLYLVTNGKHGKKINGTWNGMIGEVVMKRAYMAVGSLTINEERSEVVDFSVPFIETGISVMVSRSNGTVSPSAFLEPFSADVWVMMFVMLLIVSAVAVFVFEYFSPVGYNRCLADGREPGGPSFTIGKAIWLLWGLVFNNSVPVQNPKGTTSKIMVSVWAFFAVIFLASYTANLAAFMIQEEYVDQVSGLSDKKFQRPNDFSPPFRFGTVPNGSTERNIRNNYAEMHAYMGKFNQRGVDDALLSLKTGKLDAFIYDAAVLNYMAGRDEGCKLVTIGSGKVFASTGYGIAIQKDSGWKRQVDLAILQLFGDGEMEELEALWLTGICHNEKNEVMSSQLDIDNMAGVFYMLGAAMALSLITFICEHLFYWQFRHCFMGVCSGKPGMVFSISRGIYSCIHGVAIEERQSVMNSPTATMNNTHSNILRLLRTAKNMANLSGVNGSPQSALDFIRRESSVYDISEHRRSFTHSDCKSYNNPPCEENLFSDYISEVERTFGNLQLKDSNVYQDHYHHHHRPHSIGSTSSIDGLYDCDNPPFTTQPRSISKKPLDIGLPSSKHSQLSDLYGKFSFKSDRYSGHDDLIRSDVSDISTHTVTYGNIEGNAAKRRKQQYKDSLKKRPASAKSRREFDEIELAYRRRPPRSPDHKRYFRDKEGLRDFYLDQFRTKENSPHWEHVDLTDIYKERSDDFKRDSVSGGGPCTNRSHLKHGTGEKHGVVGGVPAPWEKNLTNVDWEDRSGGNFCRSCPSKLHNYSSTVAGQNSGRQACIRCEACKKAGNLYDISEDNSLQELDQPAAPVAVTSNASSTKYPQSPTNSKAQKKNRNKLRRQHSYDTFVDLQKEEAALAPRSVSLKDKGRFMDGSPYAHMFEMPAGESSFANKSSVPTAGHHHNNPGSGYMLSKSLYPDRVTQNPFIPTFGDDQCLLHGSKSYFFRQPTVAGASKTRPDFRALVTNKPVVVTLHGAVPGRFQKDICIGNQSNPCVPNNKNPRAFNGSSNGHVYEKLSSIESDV

| Compound | Ki [nM] |
| --- | --- |
| O=C1C(N2CCC(c3ccc(O)cc3)CC2)CCN1C1CCc2ccccc21 (stereo not drawn) [Example 34, 1-(2,3-Dihydro-1H-inden-1-yl)-3-(4-(4-hydroxyphenyl)piperidin-1-yl)pyrrolidin-2-one] | 670 |
| O=C1C(N2CCCC(c3ccc(O)cc3)CC2)CCN1Cc1ccc(F)cc1 (stereo not drawn) [Example 35, 1-(4-Fluorobenzyl)-3-(4-(4-hydroxyphenyl)azepan-1-yl)pyrrolidin-2-one] | 17 |
| Cc1ccc(CN2CCC(N3CCCC(c4ccc(O)cc4)CC3)C2=O)cc1 (stereo not drawn) [Example 36, 3-(4-(4-Hydroxyphenyl)azepan-1-yl)-1-(4-methylbenzyl)-pyrrolidin-2-one] | 34 |
| O=C1C(N2CCCC(c3ccc(O)cc3)CC2)CCN1Cc1ccccc1 (stereo not drawn) [Example 37, 1-Benzyl-3-(4-(4-hydroxyphenyl)azepan-1-yl)pyrrolidin-2-one] | 21 |
| Cc1ccc(CN2CCCC(N3CCC(c4ccc(O)cc4)CC3)C2=O)cc1 (stereo not drawn) [Example 38, 4-(4-Hydroxyphenyl)-1′-(4-methylbenzyl)-[1,3′-bipiperidin]-2′-one] | 150 |
| Cc1ccc(CN2CCCC(N3CCC(c4ccc(O)cc4)CC3)C2=O)cc1F (stereo not drawn) [Example 39, 1′-(3-Fluoro-4-methylbenzyl)-4-(4-hydroxyphenyl)-[1,3′-bipiperidin]-2′-one] | 300 |
| O=C1C(N2CCC(c3ccc(O)cc3)CC2)CCCN1Cc1ccccc1 (stereo not drawn) [Example 40, 1′-Benzyl-4-(4-hydroxyphenyl)-[1,3′-bipiperidin]-2′-one] | 480 |
| O=C1C(N2CCCC(c3ccc(O)cc3)C2)CCCN1Cc1ccc(Cl)cc1 (stereo not drawn) [Example 42, 1′-(4-Chlorobenzyl)-3-(4-hydroxyphenyl)-[1,3′-bipiperidin]-2′-one] | 720 |
| O=C1[C@H](N2CCC(c3ccc(O)cc3)CC2)CCN1Cc1ccc(O)c(O)c1 [Example 43, (R)-1-(3,4-Dihydroxybenzyl)-3-(4-(4-hydroxyphenyl)piperidin-1-yl)pyrrolidin-2-one] | 150 |
| Cc1ccc(CN2CC[C@H](N3CC[C@@H](c4ccc(O)c(F)c4)[C@H](F)C3)C2=O)cc1F [Example 45, P-1, (S)-3-((3S,4S)-3-fluoro-4-(3-fluoro-4-hydroxyphenyl)piperidin-1-yl)-1-(3-fluoro-4-methylbenzyl)pyrrolidin-2-one] | 260 |
| Cc1ccc(CN2CC[C@@H](N3CC[C@@H](c4ccc(O)c(F)c4)[C@H](F)C3)C2=O)cc1F [Example 45, P-2, (R)-3-((3S,4S)-3-fluoro-4-(3-fluoro-4-hydroxyphenyl)piperidin-1-yl)-1-(3-fluoro-4-methylbenzyl)pyrrolidin-2-one] | 3.1 |
| Cc1ccc(CN2CC[C@H](N3CC[C@H](c4ccc(O)c(F)c4)[C@@H](F)C3)C2=O)cc1F [Example 45, P-3, (S)-3-((3R,4R)-3-Fluoro-4-(3-fluoro-4-hydroxyphenyl)piperidin-1-yl)-1-(3-fluoro-4-methylbenzyl)pyrrolidin-2-one] | 380 |
| Cc1ccc(CN2CC[C@@H](N3CC[C@H](c4ccc(O)c(F)c4)[C@@H](F)C3)C2=O)cc1F [Example 45, P-4, (R)-3-((3R,4R)-3-fluoro-4-(3-fluoro-4-hydroxyphenyl)piperidin-1-yl)-1-(3-fluoro-4-methylbenzyl)pyrrolidin-2-one] | 2.5 |
| Cc1ccc(CN2CC[C@H](N3CC[C@@H](c4ccc(O)cc4)[C@H](F)C3)C2=O)cc1F [Example 47, P-1, (S)-3-((3S,4S)-3-Fluoro-4-(4-hydroxyphenyl)piperidin-1-yl)-1-(3-fluoro-4-methylbenzyl)pyrrolidin-2-one] | 470 |
| Cc1ccc(CN2CC[C@H](N3CC[C@H](c4ccc(O)cc4)[C@@H](F)C3)C2=O)cc1F [Example 47, P-2, (S)-3-((3R,4R)-3-fluoro-4-(4-hydroxyphenyl)piperidin-1-yl)-1-(3-fluoro-4-methylbenzyl)pyrrolidin-2-one] | 470 |
